From patent US20190135879A1, “GENE REGULATING BIN2 FUNCTION AND TRANSGENIC PLANT TRANSFORMED BY THE GENE” (SEOUL NATIONAL UNIVERSITY R&DB FOUNDATION, priority 2016, published 2019)
Residues, ends and D or L forms follow the SMILES beside them. *: point of attachment. Cbz = O=C(OCc1ccccc1)*

Assays:
BIN2-HA protein = assay: BL treatment assay, BIN2-HA protein amount by IP/Western analysis; type: in vivo, Arabidopsis thaliana
Description: Seedlings from 1-week-old plants were harvested and ground to powder in N2 and mixed with the extraction buffer containing 50 mM Tris-Cl (pH 7.5), 100 mM NaCl, 10 mM MgCl2, 1 mM EDTA, 10% glycerol 0.1% NP-40, 1 mM phenymethylsulfonyl fluoride (PMSF), and 1× protease inhibitor cocktail (GenDEPOT) 20 min at 4° C.
The IP experiments were performed using HA Tag IP/Co-IP Kit according to the manufacturer's protocol (Thermo Pierce).
The supernatant was incubated with prewashed anti-HA agarose beads for 4 h at 4° C. with gentle shaking. The beads were collected and washed three times with TBS plus 0.05% Tween-20 detergent (TBST), and dissolved in 2×SDS sample buffer. The proteins were separated by 10% SDS-PAGE, and Anti-HA (1:2,000, AbCam #9110) antibody was used to detect BIN2-HA.
[…] The seedlings were transferred to liquid 1/2 MS medium with 1% sucrose containing various concentrations of BL (24-epibrassinolide, Sigma #E1641), and incubated for the indicated times before being removed for Western analysis.
To investigate the BL-Induced BIN2 degradation, BRZ (Sekimata et al., 2001) treated seedlings were incubated in liquid 1/2 MS medium containing 1 μM BL and/or 20 μM MG132 (Sigma), a specific 26S proteasome inhibitor (Rock et al., 1994) for 30 min.

[1] = test system: BIN2-HA transgenic seedlings; assay: Phenotype of BIN2-HA transgenic seedlings on BRZ / BL medium; type: in vivo, Arabidopsis thaliana
Description: (§1) Arabidopsis seeds were sterilized and germinated on agar-solidified 1/2 Murashige and Skoog (MS, Duchefa #M0222) with 1% sucrose. After stratification at 4° C. for 3 days, the wild type and mutant plants were grown under a photoperiod of a long day condition (16 h light/8 h dark) at 23° C. Seeds of various transgenic lines were germinated on Murashige and Skoog medium (1/2 MS) with 2 μM BRZ (Sigma), a BR biosynthesis inhibitor, and grown under a long day condition at 23° C. for 1 week. The seedlings were transferred to liquid 1/2 MS medium with 1% sucrose containing various concentrations of BL (24-epibrassinolide, Sigma #E1641), and incubated for the indicated times before being removed for Western analysis. To confirm whether the amount of BIN2 is affected by the BRs level, we grew BIN2-HA line and a bin2-6D-HA line on medium containing 2 μM BRZ for 2 weeks and then transferred them to liquid medium with 1 μM epi-BL for 2 to 8 days.

[2] = test system: bin2-6D-HA transgenic seedlings; assay: Phenotype of bin2-6D-HA transgenic seedlings on BL medium; type: in vivo, Arabidopsis thaliana; conditions: 1 μM BL-containing medium for 0, 2, 4 and 8 d
Description: as §1

BIN2 [3] = biological target: T1, BIN2 (Arabidopsis thaliana, UniProt Q39011); assay: Yeast two-hybrid assay of the BIN2-BRF1 interaction; type: binding; conditions: SD/-L-T-H medium with 1.5 mM 3-AT
T1 construct: the full-length cDNA fragments of BIN2 and BRF1 were PCR amplified with specific primers; expressed in transfected cells; host or cells: yeast strain AH109
T1 sequence (Q39011 1-380): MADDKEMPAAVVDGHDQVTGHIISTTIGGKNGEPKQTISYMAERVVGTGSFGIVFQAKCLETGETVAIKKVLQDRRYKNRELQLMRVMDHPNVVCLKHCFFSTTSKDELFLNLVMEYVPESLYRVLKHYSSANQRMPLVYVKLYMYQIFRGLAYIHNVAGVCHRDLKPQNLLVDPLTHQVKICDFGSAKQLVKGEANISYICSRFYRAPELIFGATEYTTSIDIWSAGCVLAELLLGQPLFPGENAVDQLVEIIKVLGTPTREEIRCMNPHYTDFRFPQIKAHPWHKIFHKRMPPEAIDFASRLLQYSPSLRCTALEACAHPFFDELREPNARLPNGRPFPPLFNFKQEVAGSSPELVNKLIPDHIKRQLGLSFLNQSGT
Description: Yeast two-hybrid assay was conducted following the Matchmaker Gold Yeast Two-Hybrid System manufacturer's protocol (Clontech) for testing the BIN2 and BRF1 interaction.
To make the yeast two-hybrid assay constructs, the full-length cDNA fragments of BIN2 and BRF1 were PCR amplified with specific primers, BIN2-F and BIN2-R, BRF1-NdeI-F and BRF1-EcoRI-R, respectively. The PCR products BIN2 and BRF1 were ligated to the prey pGADT7 vector (AD vector) and the bait pGBKT7 vector (DBD vector), respectively. These prey and bait vectors were transformed into the yeast strain AH109, and yeast was grown on SD/-Trp/-Leu medium for 3 days. Transformants were selected on SD/Leu-/Trp- and SD/Leu-/Trp-/His-/1.5 mM 3-amino-1,2,4-triazole (3-AT, Sigma) medium. Empty vectors were used as the negative control.
Yeast two-hybrid analysis performed using primers BIN2-NdeI-F (5′-[…]-3′), BIN2-EcoRI-R (5′-[…]-3′), BRF1-NdeI-F (5′-[…]-3′), BRF1-EcoRI-R (5′-[…]-3′), (NdeI and EcoRI sites are underlined) (SEQ ID NOs: 48-51)

BIN2 [4] = assay: Immunoprecipitation combined with LC/MALDI-TOF/MS of BIN2-interacting proteins; type: binding, Arabidopsis thaliana; conditions: BL-treated transgenic seedlings, anti-HA IP
Description: Seeds of transgenic lines, BIN2-HA, bin2-6D-HA, and BIN2KD-HA, were germinated on agar-solidified 1/2 MS with 1% sucrose supplemented with 1 μM BRZ and grown under a long day condition at 23° C. for 2 week. The seedlings were transferred them to liquid medium (1/2 MS with 1% sucrose) with 1 μM BL, and incubated for 30 min. These seedlings were ground to powder in liquid nitrogen and solubilized with protein extraction buffer containing 50 mM Tris-Cl (pH 7.5), 100 mM NaCl, 10 mM MgCl2, 1 mM EDTA, 10% glycerol 0.1% NP-40, 1 mM PMSF, and 1× Protease inhibitor cocktail (GenDEPOT). The extracts were centrifuged at 20,000×g for 20 min, and the resulting supernatants were collected and incubated with pretreated anti-HA agarose bead (Thermo Pierce) at 4° C. After incubation, the agarose beads were collected by centrifugation at 800×g for 30 sec and washed three times with extraction buffer. Immunoprecipitation (IP) complex was eluted by elution buffer containing 50 mM Tris-HCl (pH 7.5), 50 mM DTT, 1 mM EDTA, 10% glycerol, 1% SDS, and 0.01% bromophenol blue, and then separated in a 10% SDS-PAGE gel, and immunoblot analysis. […] The gel lane with separated bin2-6D-HA proteins was cut into a single slices, and then in-gel tryptic digestion and peptide desalting, the extracted peptides were analyzed by MALDI-TOF mass spectrometry on an Ultraflex III TOF/TOF (Bruker Daltonics, Germany). […]

`CC(C)[C@@H](C)[C@@H](O)[C@H](O)[C@@H](C)[C@H]1CC[C@H]2[C@@H]3COC(=O)[C@H]4C[C@H](O)[C@H](O)C[C@]4(C)[C@H]3CC[C@]12C` [BL, 24-epibrassinolide] was tested, and the “time within which BRZ-stabilized BIN2-HA protein decreased by BL treatment” value (BIN2-HA protein; BRZ-grown BIN2-HA seedlings transferred to BL liquid medium, Western) was 10 to 30 min, the “phenotypic response of BIN2-HA transgenic line to BL treatment” value ([1]; 1 μM BL-containing medium for 0, 2, 4 and 8 d) was “responds” and the “phenotypic response of dwarfed bin2-6D-HA line to BL treatment” value [2] was “BL-insensitive”.

In the case of `CC(O)(c1ccccc1)C(Cc1ccc(Cl)cc1)n1cncn1` (stereo not drawn) [BRZ], the “effect of exogenous application on BIN2 protein” value (BIN2-HA protein; exogenous application of BRZ) is reported as “increased” and the “effect of BRZ treatment on bin2 phenotype of BIN2-HA seedling” value ([1]; 2 μM BRZ medium for 2 weeks) is reported as “enhanced”.

With `CC(C)C[C@@H](C=O)NC(=O)[C@H](CC(C)C)NC(=O)[C@H](CC(C)C)NC(=O)OCc1ccccc1` [MG132] (Cbz-Leu-Leu-Leu-aldehyde) the “effect on BL-induced BIN2 disappearance” value (BIN2-HA protein; BIN2-HA seedlings, 1 μM BRZ 2 weeks, then 1 μM BL and/or 20 μM MG132, 30 min, IP/Western) was “effectively blocked”.

B1: BRF1: Arabidopsis F-box E3 ligase protein encoded by At5g62970, SEQ ID NO: 2 (protein, listed as Arabidopsis sp.)
chain: MDKISGFSDDELLVKILSFLPFKFAITTSVLSKQWKFLWMRVPKLEYDEDSMYSFEYSFRYFLPKAKEVDSETYSIVSESGHRMRSFIEKNLPLHSSPVIESLRLKFFTEVFQPEDIKLWVEIAVSRCAQELSVDFFPKEKHNALLPRNLYTCKSLVTLKLRNNILVDVPHVFSLPSLKILHLERVTYGDGESLQRLLSNCSVLEDLVVELDTGDNVRKLDVIIPSLLSLSFGMSRYCAYEGYRIDTPSLKYFKLTDLSKTFSGLIENMPKLEEANITARHNFKKLLELVTSVKRLSLNIENNDAEALTAIYGDDIVFNELEHLNFHIHNAYWSELLYWLLKASPKLQNLEFDEQCSRDGTMGTLAVFWNQPNSVPQCLLSTLQTFEWSGYPGSVQGKDLATYILRKSRQLKIATISIGYGLDPQQKLKMEMDVKFSFRASPTCKRVFY
For B1, the “interaction with BIN2 in yeast two-hybrid assay” value (BIN2 [3]) was “specially interacted” and the “identification as BIN2-interacting protein by IP combined LC/MALDI-TOF/MS” value (BIN2 [4]) was “BIN2-interacting protein”.

B2: BRF2: Arabidopsis F-box E3 ligase protein encoded by At5g56690, SEQ ID NO: 4 (protein, listed as Arabidopsis sp.)
chain: MAEISGLPDDLLVKILAFLPTKVAISTSVLSKQWRFLWMWLPKLKYDDYDDITDGFNSVSAFQTYRDFIAKNLPLHRAPIIESLSLGFRCGTLQPEDLKSWVEVAVSRSVRELSILAYYRNNYALSSSSLYTCKSLVTLKGFNIRVDVPPTVCLLPSLRTLELKRVRYLNEDSLRMLLSFCPVLEYLSIERHDNDNLRGLVVDVPSLRRLSLTSYTGCSSDDYVIVTPSLKYFKAFDYRSEISSYKIEKIPELEEADISIERNPEKLFVYFKSIKCLSLQVDFNSKEEPGYDSGIVFNHLEELTPYINDANWSKLLFRLLNDSPKLRVLEISNSKSFYKEKIGEYLPVSWSKNQGSVPKCFLNSLETFRVKWYYSEEQEDRDFLSLIFKHARCLKSTSILHR
For B2, the “identification as BIN2-interacting protein by IP combined LC/MALDI-TOF/MS” value (BIN2 [4]) was “BIN2-interacting protein”.
